Assay [1] relates to HCV 1a-H77 subgenomic replicon. The assay can be described thus: microbe, parasite or virus in culture. The settings on record: Hepatitis C virus, stable replicon. In kind it is cell-based, HCV genotype 1a.
Assay [2] has as its system chimeric replicon with genotype 2b NS5B. The assay can be described thus: microbe, parasite or virus in culture. The settings on record: Hepatitis C virus, read-out: 2b chimera 5% FBS EC50. In kind it is cell-based, HCV genotype 2b.
Assay [3] deals with HCV NS5B polymerase 1a-H77-C316Y. The assay can be described thus: biochemical. Details: species or system HCV genotype 1a. The settings on record: ratio of enzyme IC50s, 1a H77-C316Y / 1a H77. The method, boiled down: (§1)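 E. coli-expressed NS5B (residues 1-570, His-tagged) transcribed a 2.1 kb HCV 1b negative-strand 3′-end RNA template (5 nM) with 20 μM CTP, 20 μM ATP and 0.284 μM [3H]UTP for 3 h at 30° C. Spermine-precipitated RNA was filter-captured and counted by scintillation; IC50 from nonlinear regression.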

Assay [4] addresses T1, HCV NS5B polymerase 1a-H77-C316Y (Hepatitis C virus genotype 1a, UniProt P27958, C2736Y).
T1 construct: six-histidine tag; made in house; host or cells: E. coli
The assay can be described thus: biochemical. Details: species or system HCV genotype 1a. The procedure, abridged: as §1

The target in assay [5] is T2, HCV NS5B polymerase 1a-H77 (Hepatitis C virus genotype 1a, UniProt P27958).
T2 construct: six-histidine tag; made in house; host or cells: E. coli
T2 sequence (P27958 2421-2990): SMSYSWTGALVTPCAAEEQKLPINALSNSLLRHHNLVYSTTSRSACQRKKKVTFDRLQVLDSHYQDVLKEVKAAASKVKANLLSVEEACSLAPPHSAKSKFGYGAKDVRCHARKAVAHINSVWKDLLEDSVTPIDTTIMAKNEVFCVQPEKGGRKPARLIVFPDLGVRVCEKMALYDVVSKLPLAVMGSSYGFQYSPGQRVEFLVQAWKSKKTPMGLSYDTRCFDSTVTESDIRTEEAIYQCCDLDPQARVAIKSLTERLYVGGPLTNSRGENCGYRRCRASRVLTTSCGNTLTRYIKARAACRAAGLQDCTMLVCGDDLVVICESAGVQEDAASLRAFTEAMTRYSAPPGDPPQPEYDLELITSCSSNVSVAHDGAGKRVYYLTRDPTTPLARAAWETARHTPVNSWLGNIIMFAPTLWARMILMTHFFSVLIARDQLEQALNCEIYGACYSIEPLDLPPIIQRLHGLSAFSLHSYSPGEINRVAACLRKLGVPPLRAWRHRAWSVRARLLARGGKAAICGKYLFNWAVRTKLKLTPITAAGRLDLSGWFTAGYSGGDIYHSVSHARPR
The assay can be described thus: biochemical. The arrangement: species or system HCV genotype 1a. The settings on record: enzyme, strain 1a H77; read-out: HCV Polymerase Strain 1a H77 IC50. The method, boiled down:
as §1

Assay [6] deals with chimeric replicon with 2a-J6CF-derived NS5B. The assay can be described thus: microbe, parasite or virus in culture. It counts as cell-based, HCV genotype 2a. The settings on record: Hepatitis C virus, read-out: 2a chimera 5% FBS EC50.
For assay [7], the system named is chimeric replicon with genotype 3a NS5B. The assay can be described thus: microbe, parasite or virus in culture. It counts as cell-based, HCV genotype 3a. The settings on record: Hepatitis C virus, read-out: 3a chimera 5% FBS EC50.
The subject of assay [8] is chimeric replicon with genotype 4a NS5B. The assay can be described thus: microbe, parasite or virus in culture. It counts as cell-based, HCV genotype 4a. As to conditions: Hepatitis C virus, read-out: 4a chimera 5% FBS EC50.
The target of assay [9] is T3, HCV NS5B polymerase 1b BK strain (Hepatitis C virus genotype 1b, UniProt P26663).
T3 construct: six-histidine tag; made in house; host or cells: E. coli
T3 sequence (P26663 2420-2989): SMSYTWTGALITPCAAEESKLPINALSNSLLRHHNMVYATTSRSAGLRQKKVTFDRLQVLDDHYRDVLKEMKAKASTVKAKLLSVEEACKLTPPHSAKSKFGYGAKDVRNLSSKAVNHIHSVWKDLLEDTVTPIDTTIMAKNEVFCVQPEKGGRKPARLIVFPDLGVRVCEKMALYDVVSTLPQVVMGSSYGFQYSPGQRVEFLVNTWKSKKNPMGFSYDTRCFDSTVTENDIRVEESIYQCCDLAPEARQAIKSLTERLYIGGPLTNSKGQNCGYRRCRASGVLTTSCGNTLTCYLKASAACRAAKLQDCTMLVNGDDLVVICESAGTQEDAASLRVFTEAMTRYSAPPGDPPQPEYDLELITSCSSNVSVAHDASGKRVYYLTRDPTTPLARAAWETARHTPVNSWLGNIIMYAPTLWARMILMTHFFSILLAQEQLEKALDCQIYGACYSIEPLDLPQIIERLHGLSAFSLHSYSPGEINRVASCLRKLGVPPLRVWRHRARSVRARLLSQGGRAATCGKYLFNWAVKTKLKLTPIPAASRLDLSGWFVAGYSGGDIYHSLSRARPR
The assay can be described thus: HCV NS5B polymerase enzymatic inhibition assay, strain 1b BK. The settings on record: enzyme, strain 1b BK; read-out: HCV Polymerase Strain 1b BK IC50. In kind it is biochemical. The procedure, abridged:
as §1

The test system of assay [10] is HCV 1b-BB7 subgenomic replicon. The assay can be described thus: microbe, parasite or virus in culture. It counts as cell-based, HCV genotype 1b. The settings on record: Hepatitis C virus, stable replicon.
Where [11] appears, read: 5% FBS, absence of human plasma, read-out: Stable Replicon 1a H77 5% FBS EC50.
Setting [12] is: strain 1a H77, 5% FBS + 40% human plasma, read-out: 1a H77 5% FBS + 40% Human Plasma EC50.
Where [13] appears, read: strain 1a H77, 5% FBS, no human plasma, read-out: 1a H77 5% FBS EC50.
The mark [14] stands for this setting: strain 1a H77, 5% FBS, read-out: 1a H77 5% FBS EC50.
Setting [15] is: strain 1b BB7, 5% FBS + 40% human plasma, read-out: 1b BB7 5% FBS + 40% Human Plasma EC50.
Setting [16] is: strain 1b BB7, 5% FBS, no human plasma, read-out: 1b BB7 5% FBS EC50.
The mark [17] stands for this setting: strain 1b BB7, 5% FBS, read-out: 1b BB7 5% FBS EC50.

Like-named read-outs stand apart in the source and are kept apart here.

T1 sequence (P27958 2421-2990 C2736Y): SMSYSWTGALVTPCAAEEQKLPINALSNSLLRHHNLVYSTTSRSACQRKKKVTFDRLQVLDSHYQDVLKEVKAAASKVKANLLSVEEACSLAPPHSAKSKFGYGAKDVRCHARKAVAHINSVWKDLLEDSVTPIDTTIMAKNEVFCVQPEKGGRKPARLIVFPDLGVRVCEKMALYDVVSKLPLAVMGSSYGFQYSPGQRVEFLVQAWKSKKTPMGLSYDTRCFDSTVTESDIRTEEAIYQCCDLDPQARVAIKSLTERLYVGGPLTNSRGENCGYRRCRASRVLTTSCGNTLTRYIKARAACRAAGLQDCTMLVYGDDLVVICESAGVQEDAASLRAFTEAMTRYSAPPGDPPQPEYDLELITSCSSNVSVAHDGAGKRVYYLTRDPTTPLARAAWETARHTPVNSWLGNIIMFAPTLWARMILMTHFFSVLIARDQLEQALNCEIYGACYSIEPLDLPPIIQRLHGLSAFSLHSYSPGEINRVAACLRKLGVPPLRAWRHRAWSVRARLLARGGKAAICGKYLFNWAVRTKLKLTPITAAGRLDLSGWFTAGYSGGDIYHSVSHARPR

On to `CCS(=O)(=O)CCCN(c1cc2oc(-c3ccc(F)cc3)c(C3=NOCCN3)c2cc1C1CC1)S(C)(=O)=O` [Example 143, N-[5-cyclopropyl-3-(5,6-dihydro-4H-1,2,4-oxadiazin-3-yl)-2-(4-fluorophenyl)-1-benzofuran-6-yl]-N-[3-(ethylsulfonyl)propyl]methanesulfonamide], for which the half-maximal effective concentration (EC50) came out at 21.8 nM in [1] (setting [11]); 125 nM in assay [1] (setting [12]); 21.8 nM in assay [1] (setting [13]); 21.8 nM in assay [1] (setting [14]); 137 nM in assay [2]; 131 nM in assay [6]. The EC50 in [7] was determined as 35 nM; in assay [8], 150 nM; in [10] (setting [15]) it was 108 nM; in assay [10] (setting [16]), 12 nM; in [10] (setting [17]), 12 nM. The “C316Y/1a Fold Resistance” value in [3] was 8 fold. In addition, the IC50 in [4] was determined as 75 nM; in [5] it was 9 nM; in [9], 42 nM.
With `CS(=O)(=O)N(Cc1cnc(-c2ccc3[nH]ccc3c2)s1)c1ccc2c(-c3ncc[nH]3)c(-c3ccccc3)oc2c1` [Example 23, N-[3-(1H-imidazol-2-yl)-2-phenyl-1-benzofuran-6-yl]-N-{[2-(1H-indol-5-yl)-1,3-thiazol-5-yl]methyl}methanesulfonamide], the EC50 in assay [1] (setting [11]) was 230 nM; in [1] (setting [12]), 10000 nM; in assay [1] (setting [13]), 230 nM; in [1] (setting [14]) it was 230 nM; in [2], 281 nM; in assay [6], 41.6 nM. For the same compound, the half-maximal effective concentration (EC50) was determined as 17.3 nM in assay [7]; 313 nM in assay [8]; 9240 nM in [10] (setting [15]); 26.4 nM in assay [10] (setting [16]); 26.4 nM in assay [10] (setting [17]). In assay [3], the “C316Y/1a Fold Resistance” value is 7 fold. Also, the IC50 in assay [4] stood at 27 nM; in assay [5], 3.9 nM; in assay [9] it was 10 nM.
For the compound `CNC(=O)CCCN(c1cc2oc(-c3ccc(F)cc3)c(-c3ncc[nH]3)c2cc1C1CC1)S(C)(=O)=O` [Example 107, 4-{[5-cyclopropyl-2-(4-fluorophenyl)-3-(1H-imidazol-2-yl)-1-benzofuran-6-yl](methylsulfonyl)amino}-N-methylbutanamide], the EC50 was 17.5 nM in assay [1] (setting [11]); 82 nM in [1] (setting [12]); 17.5 nM in [1] (setting [13]); 17.5 nM in assay [1] (setting [14]); 141 nM in assay [2]; 135 nM in [6]. Also, the EC50 in assay [7] is 9.3 nM; in [8] it was 129 nM; in [10] (setting [15]) it was 66 nM; in assay [10] (setting [16]), 11 nM; in assay [10] (setting [17]), 11 nM. In addition, the “C316Y/1a Fold Resistance” value in assay [3] is on record as 22 fold. In addition, the IC50 in assay [4] came out at 122 nM; in assay [5], 5.5 nM; in assay [9], 28 nM.
For the compound `C[S+]([O-])CCN(c1cc2oc(-c3ccc(F)cc3)c(C3=NOCCN3)c2cc1C1CC1)S(C)(=O)=O` (centres unmarked) [Example 138, N-[5-cyclopropyl-3-(5,6-dihydro-4H-1,2,4-oxadiazin-3-yl)-2-(4-fluorophenyl)-1-benzofuran-6-yl]-N-[2-(methylsulfinyl)ethyl]methanesulfonamide], the EC50 in [1] (setting [11]) stood at 46.5 nM; in assay [1] (setting [12]), 183 nM; in [1] (setting [13]) it was 46.5 nM; in [1] (setting [14]), 46.5 nM; in assay [2] it was 1000 nM; in assay [6], 1000 nM. In addition, the EC50 in assay [7] amounted to 102 nM; in assay [8] it was 524 nM; in assay [10] (setting [15]) it was 270 nM; in [10] (setting [16]), 36 nM; in assay [10] (setting [17]), 36 nM. Besides, in [3], the “C316Y/1a Fold Resistance” value is on record as 24 fold. The IC50 worked out at 232 nM in [4], 9.8 nM in assay [5] and 49 nM in [9].
Consider `CN(C)CCCN(c1cc2oc(-c3ccc(F)cc3)c(-c3ncc[nH]3)c2cc1C1CC1)S(C)(=O)=O` [Example 59, N-[5-cyclopropyl-2-(4-fluorophenyl)-3-(1H-imidazol-2-yl)-1-benzofuran-6-yl]-N-[3-(dimethylamino)propyl]methanesulfonamide], for which the EC50 worked out at 85.1 nM in assay [1] (setting [11]); 159 nM in assay [1] (setting [12]); 85.1 nM in [1] (setting [13]); 85.1 nM in [1] (setting [14]); 127 nM in assay [2]; 65 nM in assay [6]. The EC50 in assay [7] was 10.3 nM; in assay [8], 424 nM; in assay [10] (setting [15]) it was 20 nM; in assay [10] (setting [16]), 11.2 nM; in [10] (setting [17]), 11.2 nM. In addition, the “C316Y/1a Fold Resistance” value in assay [3] amounted to 112 fold. Besides, the IC50 in assay [4] was 1500 nM; in [5], 13.4 nM; in [9] it was 56 nM.
For the compound `CS(=O)(=O)N(CCCC#N)c1cc2oc(-c3ccc(F)cc3)c(C3=NOCCN3)c2cc1C1CC1` [Example 133, N-(3-cyanopropyl)-N-[5-cyclopropyl-3-(5,6-dihydro-4H-1,2,4-oxadiazin-3-yl)-2-(4-fluorophenyl)-1-benzofuran-6-yl]methanesulfonamide], the EC50 in assay [1] (setting [11]) worked out at 6.3 nM; in [1] (setting [12]) it was 37 nM; in assay [1] (setting [13]), 6.3 nM; in assay [1] (setting [14]) it was 6.32 nM; in assay [2], 82 nM; in assay [6] it was 92 nM. The EC50 in [7] came out at 11 nM; in assay [8] it was 75 nM; in assay [10] (setting [15]) it was 55 nM; in assay [10] (setting [16]) it was 6 nM; in assay [10] (setting [17]), 6 nM. Also, the “C316Y/1a Fold Resistance” value in assay [3] turned out to be 6 fold. In addition, the IC50 in assay [4] came to 50 nM; in assay [5], 8 nM; in [9], 46 nM.
On to `[2H]C([2H])(CCCCC)N(c1cc2oc(-c3ccc(F)cc3)c(-c3ncc[nH]3)c2cc1C1CC1)S(C)(=O)=O` [Example 113, N-[5-cyclopropyl-2-(4-fluorophenyl)-3-(1H-imidazol-2-yl)-1-benzofuran-6-yl]-N-[(1,1-^2H2)hexyl]methanesulfonamide], for which the EC50 in [1] (setting [11]) came to 59.9 nM; in assay [1] (setting [12]), 646 nM; in assay [1] (setting [13]), 59.9 nM; in assay [1] (setting [14]), 59.9 nM; in assay [2], 279 nM; in [6], 209 nM. Moreover, the EC50 in assay [7] was 41 nM; in assay [8] it was 144 nM; in assay [10] (setting [15]), 549 nM; in assay [10] (setting [16]), 28 nM; in assay [10] (setting [17]) it was 28 nM. The “C316Y/1a Fold Resistance” value in assay [3] is given as 22 fold. Besides, the IC50 in assay [4] was determined as 140 nM; in [5] it was 6.5 nM; in assay [9], 16 nM.
With `CS(=O)(=O)N(CCCN1CCCCC1)c1cc2oc(-c3ccc(F)cc3)c(C3=NOCCN3)c2cc1C1CC1` [Example 130, N-[5-cyclopropyl-3-(5,6-dihydro-4H-1,2,4-oxadiazin-3-yl)-2-(4-fluorophenyl)-1-benzofuran-6-yl]-N-[3-(piperidin-1-yl)propyl]methanesulfonamide], the EC50 in [1] (setting [11]) was 44.2 nM; in assay [1] (setting [12]), 296 nM; in assay [1] (setting [13]) it was 44.2 nM; in assay [1] (setting [14]) it was 44.2 nM; in assay [6], 74 nM; in assay [7] it was 42.6 nM. For the same compound, the 50% effective concentration (EC50) is 416 nM in assay [8], 110 nM in assay [10] (setting [15]), 26 nM in assay [10] (setting [16]) and 26 nM in assay [10] (setting [17]). For the same compound, the “C316Y/1a Fold Resistance” value in [3] came out at 20 fold. For the same compound, the IC50 was found to be 412 nM in assay [4], 20.5 nM in assay [5] and 229 nM in [9].

The values above are taken from US20160355530A1, “HEPATITIS C INHIBITORS AND USES THEREOF” (AbbVie Inc., priority 2010, published 2016).
